Source: PubChem BioAssay AID1845197 (Molecular Pharmacology Branch, DTP, NCI, 2023)

Tested on: 349418-098-R tumor spheroid viability
Assay: Anticancer human tumor 349418-098-R patient-derived lung adenocarcinoma cell line growth inhibition
Conditions: spheroids with HUVEC and MSC; for IC50: curve of first compound; for viability, T/C: stronger effect = lower value
In short: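 Complex spheroids of malignant cells with endothelial cells and mesenchymal stem cells; agents alone or combined, from near clinical Cmax (or 10 microM if unknown) down in half-log steps, 0.25% DMSO final.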
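Note: spheroids exposed to compound for 7 days before measurement.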
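Throughout, for viability, T/C: percent of vehicle control viability with 100% = DMSO-treated spheroids.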

Compound `CNCc1ccc(-c2cc(-c3nc(-c4ccc(S(=O)(=O)C(C)C)cc4)cnc3N)on2)cc1` + COc1cc2c(cc1O)CCNC21CSC2c3c(OC(C)=O)c(C)c4c(c3C(COC1=O)N1C(O)C3Cc5cc(C)c(OC)c(O)c5C(C21)N3C)OCO4 has an IC50 (second compound 30 pM) of 448 nM, an IC50 (second compound 94.9 pM) of 202 nM and an IC50 (second compound 0.0003 µM) of 162 nM. The IC50 (second compound 0.000949 µM) was < 9.49 nM, the IC50 (second compound 0.003 µM) was < 9.49 nM and the viability, T/C (second compound 30 pM, first compound 0.00949 µM) was 105%. For the same compound, the viability, T/C (second compound 30 pM, first compound 0.03 µM) was 91.3%, the viability, T/C (second compound 30 pM, first compound 0.0949 µM) was 87.8% and the viability, T/C (second compound 30 pM, first compound 0.3 µM) was 69.6%. It also gave a viability, T/C (second compound 30 pM, first compound 0.949 µM) of 14.5%, a viability, T/C (second compound 30 pM, first compound 3 µM) of 5.77% and a viability, T/C (second compound 94.9 pM, first compound 0.00949 µM) of 97%. For the same compound, the viability, T/C (second compound 94.9 pM, first compound 0.03 µM) was 97.5%, the viability, T/C (second compound 94.9 pM, first compound 0.0949 µM) was 85.4% and the viability, T/C (second compound 94.9 pM, first compound 0.3 µM) was 31.1%. The viability, T/C (second compound 94.9 pM, first compound 0.949 µM) was 10.2%, the viability, T/C (second compound 94.9 pM, first compound 3 µM) was 3.32% and the viability, T/C (second compound 0.0003 µM, first compound 0.00949 µM) was 91.6%. It also gave a viability, T/C (second compound 0.0003 µM, first compound 0.03 µM) of 93.5%, a viability, T/C (second compound 0.0003 µM, first compound 0.0949 µM) of 79.5% and a viability, T/C (second compound 0.0003 µM, first compound 0.3 µM) of 15.6%. For the same compound, the viability, T/C (second compound 0.0003 µM, first compound 0.949 µM) was 5.43%, the viability, T/C (second compound 0.0003 µM, first compound 3 µM) was 2.26% and the viability, T/C (second compound 0.000949 µM, first compound 0.00949 µM) was 0.44%. For the same compound, the viability, T/C (second compound 0.000949 µM, first compound 0.03 µM) was 0.78%, the viability, T/C (second compound 0.000949 µM, first compound 0.0949 µM) was 0.51% and the viability, T/C (second compound 0.000949 µM, first compound 0.3 µM) was 0.68%. The viability, T/C (second compound 0.000949 µM, first compound 0.949 µM) was 0.41%, the viability, T/C (second compound 0.000949 µM, first compound 3 µM) was 0.11% and the viability, T/C (second compound 0.003 µM, first compound 0.00949 µM) was 1.46%. It also gave a viability, T/C (second compound 0.003 µM, first compound 0.03 µM) of 1.27%, a viability, T/C (second compound 0.003 µM, first compound 0.0949 µM) of 0.93% and a viability, T/C (second compound 0.003 µM, first compound 0.3 µM) of 1.07%. It also gave a viability, T/C (second compound 0.003 µM, first compound 0.949 µM) of 1.05% and a viability, T/C (second compound 0.003 µM, first compound 3 µM) of 0.22%.
`[2H]c1nc(C)nc([2H])c1-c1cc(NC[C@@H](C)c2cccc3c(C(=O)NC)ccnc23)ncn1` + Cn1nnc2c(C(N)=O)ncn2c1=O was tested, and the IC50 (second compound 1 µM) was > 10000 nM, the IC50 (second compound 3.16 µM) was > 10000 nM and the IC50 (second compound 10 µM) was > 10000 nM. For the same compound, the IC50 (second compound 31.6 µM) was > 10000 nM, the IC50 (second compound 100 µM) was > 10000 nM and the viability, T/C (second compound 1 µM, first compound 0.0316 µM) was 98.9%. For the same compound, the viability, T/C (second compound 1 µM, first compound 0.1 µM) was 103%, the viability, T/C (second compound 1 µM, first compound 0.316 µM) was 98.7% and the viability, T/C (second compound 1 µM, first compound 1 µM) was 97.9%. The viability, T/C (second compound 1 µM, first compound 3.16 µM) was 102%, the viability, T/C (second compound 1 µM, first compound 10 µM) was 97.3% and the viability, T/C (second compound 3.16 µM, first compound 0.0316 µM) was 109%. The viability, T/C (second compound 3.16 µM, first compound 0.1 µM) was 105%, the viability, T/C (second compound 3.16 µM, first compound 0.316 µM) was 104% and the viability, T/C (second compound 3.16 µM, first compound 1 µM) was 98.3%. For the same compound, the viability, T/C (second compound 3.16 µM, first compound 3.16 µM) was 104%, the viability, T/C (second compound 3.16 µM, first compound 10 µM) was 103% and the viability, T/C (second compound 10 µM, first compound 0.0316 µM) was 104%. It also gave a viability, T/C (second compound 10 µM, first compound 0.1 µM) of 96.6%, a viability, T/C (second compound 10 µM, first compound 0.316 µM) of 102% and a viability, T/C (second compound 10 µM, first compound 1 µM) of 106%. The viability, T/C (second compound 10 µM, first compound 3.16 µM) was 101%, the viability, T/C (second compound 10 µM, first compound 10 µM) was 104% and the viability, T/C (second compound 31.6 µM, first compound 0.0316 µM) was 97.8%. The viability, T/C (second compound 31.6 µM, first compound 0.1 µM) was 110%, the viability, T/C (second compound 31.6 µM, first compound 0.316 µM) was 101% and the viability, T/C (second compound 31.6 µM, first compound 1 µM) was 104%. It also gave a viability, T/C (second compound 31.6 µM, first compound 3.16 µM) of 103%, a viability, T/C (second compound 31.6 µM, first compound 10 µM) of 104% and a viability, T/C (second compound 100 µM, first compound 0.0316 µM) of 106%. The viability, T/C (second compound 100 µM, first compound 0.1 µM) was 109%, the viability, T/C (second compound 100 µM, first compound 0.316 µM) was 106% and the viability, T/C (second compound 100 µM, first compound 1 µM) was 106%. The viability, T/C (second compound 100 µM, first compound 3.16 µM) was 108% and the viability, T/C (second compound 100 µM, first compound 10 µM) was 110%.
